Source: patent publication US6528522B2, “Substituted imidazoles as dual histamine H1 and H3 agonists or antagonists” (Schering Corporation, priority 2000, dated 2003)

What was measured:
H3 receptors = target: T1, H3 receptors (Cavia porcellus, UniProt Q9JI35); experiment: H3-Receptor Binding Assay (guinea pig brain membranes, [3H]R-α-methyl histamine or [3H]Nα-methyl histamine); conditions: HCl salt of the indicated compound, read-out: H3 Ave Ki
T1 construct: The source of the H3 receptors in this experiment was guinea pig brain; from tissue; host or cells: guinea pig brain membranes
T1 sequence (Q9JI35 whole entry): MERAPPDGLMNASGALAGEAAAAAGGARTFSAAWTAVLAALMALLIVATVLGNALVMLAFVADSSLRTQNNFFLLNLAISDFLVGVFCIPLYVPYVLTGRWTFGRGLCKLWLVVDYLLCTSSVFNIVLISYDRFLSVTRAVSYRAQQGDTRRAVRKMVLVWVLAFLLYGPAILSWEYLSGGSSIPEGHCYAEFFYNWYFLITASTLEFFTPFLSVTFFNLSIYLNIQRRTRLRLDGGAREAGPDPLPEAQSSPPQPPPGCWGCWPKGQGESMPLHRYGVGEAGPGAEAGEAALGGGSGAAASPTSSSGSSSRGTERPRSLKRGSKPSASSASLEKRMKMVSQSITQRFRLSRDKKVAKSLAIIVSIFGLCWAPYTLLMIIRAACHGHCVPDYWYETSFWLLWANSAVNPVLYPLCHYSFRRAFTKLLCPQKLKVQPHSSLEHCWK
Description: General Procedure for H3—Receptor Binding Assay
The source of the H3 receptors in this experiment was guinea pig brain. The animals weighed 400-600 g. The brain tissue was homogenized with a solution of 50 mM Tris, pH 7.5. The final concentration of tissue in the homogenization buffer was 10% w/v. The homogenates were centrifuged at 1,000×g for 10 min. in order to remove clumps of tissue and debris. The resulting supernatants were then centrifuged at 50,000×g for 20 min. in order to sediment the membranes, which were next washed three times in homogenization buffer (50,000×g for 20 min. each). The membranes were frozen and stored at −70° C. until needed.
All compounds to be tested were dissolved in DMSO and then diluted into the binding buffer (50 mM Tris, pH 7.5) such that the final concentration was 2 μg/ml with 0.1% DMSO. Membranes were then added (400 μg of protein) to the reaction tubes. The reaction was started by the addition of 3 nM [^3H]R-α-methyl histamine (8.8 Ci/mmol) or 3 nM [^3H]N^α-methyl histamine (80 Ci/mmol) and continued under incubation at 30° C. for 30 min. Bound ligand was separated from unbound ligand by filtration, and the amount of radioactive ligand bound to the membranes was quantitated by liquid scintillation spectrometry. All incubations were performed in duplicate and the standard error was always less than 10%. Compounds that inhibited more than 70% of the specific binding of radioactive ligand to the receptor were serially diluted to determine a Ki (nM). The results are given in the Table 1 for the HCl salt of the indicated compound.

histamine H1 receptor = target: T2, histamine H1 receptor (Rattus norvegicus, UniProt P31390); experiment: H1-Receptor Binding Assay (rat brain membranes, [3H]pyrilamine); conditions: male Sprague-Dawley rat brain membranes, Ki by Cheng-Prusoff, HCl salt of the indicated compound, read-out: H1 Ave Ki
T2 construct: The tissue source was male Sprague-Dawley rat brain; tissue Rockland Corporation, Gilbertsville, Pa; host or cells: male Sprague-Dawley rat brain membranes
T2 sequence (P31390 whole entry): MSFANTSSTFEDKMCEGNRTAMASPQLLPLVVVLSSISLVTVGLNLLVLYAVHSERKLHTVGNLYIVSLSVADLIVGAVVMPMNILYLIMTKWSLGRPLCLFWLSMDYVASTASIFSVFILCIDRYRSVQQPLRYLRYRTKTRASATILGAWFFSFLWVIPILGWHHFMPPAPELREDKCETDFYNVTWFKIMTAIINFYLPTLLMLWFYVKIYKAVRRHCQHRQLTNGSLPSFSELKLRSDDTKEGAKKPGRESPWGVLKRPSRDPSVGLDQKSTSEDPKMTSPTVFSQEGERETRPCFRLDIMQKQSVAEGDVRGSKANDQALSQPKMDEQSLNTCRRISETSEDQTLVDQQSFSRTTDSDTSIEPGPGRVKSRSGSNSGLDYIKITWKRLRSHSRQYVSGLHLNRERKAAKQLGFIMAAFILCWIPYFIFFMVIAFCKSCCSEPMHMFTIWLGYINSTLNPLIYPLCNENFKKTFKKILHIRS
Description: General Procedure for H1.—Receptor Binding Assay: The procedure used was based on that disclosed in V. T. Tran et al, “Histamine H1 receptors identified in mammalian brain membranes with [H-3]mepyramine”, Proc. Natl. Acad. Sci. U.S.A. 75 (1978) 6290-6294.
I. Tissue preparation protocol for histamine H1 receptor binding assay:
1. The tissue source was male Sprague-Dawley rat brain. These were purchased stripped and frozen (available from Rockland Corporation, Gilbertsville, Pa.). The buffer used was ice-cold 50 mM Tris-HCl, pH 7.5. (The pH was determined at 25° C.)
2. The brains were spread out on plastic wrap on the benchtop and allowed to thaw for 10-15 min. After this, everything was kept ice-cold.
3. Two brains were put in each 50 ml round bottom centrifuge tube and 25 ml of buffer was added. Then they were broken up with a Polytron (from Brinkmann Instruments, Westbury, N.Y.) equipped with a PT-10 tip at setting 6 for 30 sec.
4. The volume in the tube was brought up to 45 ml and mixed and the particulate material was centrifuged at 1000×g (3000 rpm, SS-34 rotor) for 10 min to remove nuclei and unbroken cells.
5. Pellets were discarded and the supernatants were centrifuged 10 min at 50,000×g (20,000 rpm, SS-34 rotor).
6. The high-speed pellets were resuspended in a volume of Tris buffer equal to the original (4 ml), the contents of all tubes were pooled, and a sample was taken for BCA protein assay . The material was aliquotted, 45 ml per round-bottom tube, and the resuspension was recentrifuged. The yield of protein was approximately 20 mg/brain, so there was about 40 mg of protein per tube.
7 . Pellets were frozen at −80° C.
II. H1 Histamine receptor binding assay:
1. FDCL and comparative compounds for assay were independently solubilized at 1 mg/ml DMSO by vortexing, or if necessary by sonication. The first dilution, 100-fold, was made in 50 mM Tris-HCl, pH 7.5, at room temperature. The three or four subsequent ten-fold serial dilutions were made in 1% DMSO/50 mM Tris-HCl, pH 7.5. Drug solutions and assay plates were kept at room temperature during the course of the assay set up.
2. Test compounds were assayed at four or five concentrations: 1, 0.1, 0.01, 0.001, and 0.0001 μg/ml. Twenty μl of drug solution was pipeted into each of three wells.
3. [^3H]Pyrilamine was diluted approximately 2000-fold with ice-cold […] Tris-HCl, pH 7.5 (to a working concentration of 20-25 nM), and put on ice.
4. A frozen tissue pellet was thawed in a 25° C. water bath, resuspended in 50 mM Tris-HCl, pH 7.5, at 1.7-2 mg/ml by brief break-up on the Polytron, and put on ice.
5. Twenty μl of diluted [^3H]pyrilamine was added to each well.
6. One hundred fifty μl of tissue suspension was added to each well.
7. The top of the plate was covered and it was placed in a 25° C. shaking water bath (about 60 oscillations/min) for 30 min..
8. Samples were filtered on a Tomtec Mach 2 harvester (available from Tomtec Corporation, Orange, Conn.) through a GF/B filter mat (from Wallac, Inc., Gaithersburg, Md.) presoaked in 0.3% polyethylenimine. Each sample was thrice washed with ice-cold 50 mM Tris-HCl, pH 7.5 dried 20 sec on the Tomtec, and dried 3-4 min in a microwave oven on a paper towel. The filter was impregnated with MELTILEX brand wax scintillant (from Wallac Corporation) and counted on a Betaplate scintillation counter (from Wallac Corporation).
9. Specific binding was determined as the difference between total and nonspecific binding. […]

| SMILES | Ki (H3 receptors) [nM] | Ki (histamine H1 receptor) [nM] |
| --- | --- | --- |
| Clc1ccc2c(c1)CCc1cccnc1C2CCN(CCCCc1c[nH]cn1)CCCCc1c[nH]cn1 (centres unmarked) | 9 | – |
| Clc1ccc2c(c1)CCc1cccnc1C2NCCc1c[nH]cn1 (centres unmarked) | 70 | 144 |
| Clc1ccc2c(c1)CCc1cccnc1C2CCNCCCCCc1c[nH]cn1 (centres unmarked) | 7 | – |
| Clc1ccc2c(c1)CCc1cccnc1C2CCN(CCCCCc1c[nH]cn1)CCCCCc1cnc[nH]1 (centres unmarked) | 26 | – |

Further compounds by falling Ki (H3 receptors), results first:

| Ki (H3 receptors) [nM] | Ki (histamine H1 receptor) [nM] | SMILES |
| --- | --- | --- |
| 37 | 40 | Clc1ccc2c(c1)CCc1cccnc1C2CCNCCCc1c[nH]cn1 (centres unmarked) |
| 29 | 41 | Clc1ccc2c(c1)CCc1cccnc1C2NCCCCc1c[nH]cn1 (centres unmarked) |
| 25 | 571 | Clc1ccc2c(c1)CCc1cccnc1C2CCN(CCCc1c[nH]cn1)CCCc1c[nH]cn1 (centres unmarked) |
| 7.5 | 502 | Clc1ccc2c(c1)CCc1cccnc1C2NCCCCCc1c[nH]cn1 (centres unmarked) |
| 7.5 | – | Clc1ccc2c(c1)CCc1cccnc1C2CCNCCCCc1c[nH]cn1 (centres unmarked) |
